{"source": "the supplement of paper PMC10307832", "experiment_in_all_cases": "relative viability (nuclei count vs DMSO), 5 days (fraction); higher = more cells survive", "key": {"A549": {"test_system": "A549", "procedure,_shortened": "(§1)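 Values are medians from duplicate plates. Each reflects relative viability, defined as the nuclei count of treated wells over that of vehicle wells. Lung cancer cell lines in 1536-well plates were pin-tool dosed one day after seeding with one drug alone or with a fixed anchor-drug dose plus five library-drug doses (not always all listed) in √10 steps, then fixed, stained and imaged at 4× after 5 days.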"}, "COR-L 105": {"test_system": "COR-L 105", "procedure,_shortened": "as §1"}, "Calu-6": {"test_system": "Calu-6", "procedure,_shortened": "as §1"}, "EBC-1": {"test_system": "EBC-1", "procedure,_shortened": "as §1"}, "IA-LM": {"test_system": "IA-LM", "procedure,_shortened": "as §1"}, "LCLC-103H": {"test_system": "LCLC-103H", "procedure,_shortened": "as §1"}, "LK-2": {"test_system": "LK-2", "procedure,_shortened": "as §1"}, "NCI-H1299": {"test_system": "NCI-H1299", "procedure,_shortened": "as §1"}, "NCI-H1355": {"test_system": "NCI-H1355", "procedure,_shortened": "as §1"}, "NCI-H1623": {"test_system": "NCI-H1623", "procedure,_shortened": "as §1"}, "NCI-H1666": {"test_system": "NCI-H1666", "procedure,_shortened": "as §1"}, "NCI-H1703": {"test_system": "NCI-H1703", "procedure,_shortened": "as §1"}, "NCI-H520": {"test_system": "NCI-H520", "procedure,_shortened": "as §1"}}}
{"smiles": "CC(=O)O[C@@]12CO[C@@H]1C[C@H](O)[C@@]1(C)C(=O)[C@H](O)C3=C(C)[C@@H](OC(=O)[C@H](O)[C@@H](NC(=O)OC(C)(C)C)c4ccccc4)C[C@@](O)([C@@H](OC(=O)c4ccccc4)[C@H]21)C3(C)C", "note": "[Docetaxel] + COc1cc2c(Oc3ccc(NC(=O)C4(C(=O)Nc5ccc(F)cc5)CC4)cc3F)ccnc2cc1OCCCN1CCOCC1 [Foretinib] (partner 0.25 µM)", "values": [{"measurement": "relative viability", "setting": "A549; first compound 0.0002 µM", "value": 0.957}, {"measurement": "relative viability", "setting": "A549; first compound 0.000632 µM", "value": 0.795}, {"measurement": "relative viability", "setting": "A549; first compound 0.002 µM", "value": 0.0591}, {"measurement": "relative viability", "setting": "A549; first compound 0.006325 µM", "value": 0.0413}, {"measurement": "relative viability", "setting": "A549; first compound 0.02 µM", "value": 0.0241}, {"measurement": "relative viability", "setting": "COR-L 105; first compound 0.0002 µM", "value": 0.986}, {"measurement": "relative viability", "setting": "COR-L 105; first compound 0.000632 µM", "value": 0.95}, {"measurement": "relative viability", "setting": "COR-L 105; first compound 0.002 µM", "value": 0.487}, {"measurement": "relative viability", "setting": "COR-L 105; first compound 0.006325 µM", "value": 0.475}, {"measurement": "relative viability", "setting": "COR-L 105; first compound 0.02 µM", "value": 0.331}, {"measurement": "relative viability", "setting": "Calu-6; first compound 0.0002 µM", "value": 0.897}, {"measurement": "relative viability", "setting": "Calu-6; first compound 0.000632 µM", "value": 0.627}, {"measurement": "relative viability", "setting": "Calu-6; first compound 0.002 µM", "value": 0.165}, {"measurement": "relative viability", "setting": "Calu-6; first compound 0.006325 µM", "value": 0.081}, {"measurement": "relative viability", "setting": "Calu-6; first compound 0.02 µM", "value": 0.0747}, {"measurement": "relative viability", "setting": "EBC-1; first compound 0.0002 µM", "value": 0.0936}, {"measurement": "relative viability", "setting": "EBC-1; first compound 0.000632 µM", "value": 0.0902}, {"measurement": "relative viability", "setting": "EBC-1; first compound 0.002 µM", "value": 0.0988}, {"measurement": "relative viability", "setting": "EBC-1; first compound 0.006325 µM", "value": 0.0924}, {"measurement": "relative viability", "setting": "EBC-1; first compound 0.02 µM", "value": 0.09}, {"measurement": "relative viability", "setting": "IA-LM; first compound 0.0002 µM", "value": 1.05}, {"measurement": "relative viability", "setting": "IA-LM; first compound 0.000632 µM", "value": 0.386}, {"measurement": "relative viability", "setting": "IA-LM; first compound 0.002 µM", "value": 0.0546}, {"measurement": "relative viability", "setting": "IA-LM; first compound 0.006325 µM", "value": 0.0457}, {"measurement": "relative viability", "setting": "IA-LM; first compound 0.02 µM", "value": 0.0491}, {"measurement": "relative viability", "setting": "LCLC-103H; first compound 0.0002 µM", "value": 0.674}, {"measurement": "relative viability", "setting": "LCLC-103H; first compound 0.000632 µM", "value": 0.61}, {"measurement": "relative viability", "setting": "LCLC-103H; first compound 0.002 µM", "value": 0.485}, {"measurement": "relative viability", "setting": "LCLC-103H; first compound 0.006325 µM", "value": 0.339}, {"measurement": "relative viability", "setting": "LCLC-103H; first compound 0.02 µM", "value": 0.272}, {"measurement": "relative viability", "setting": "LK-2; first compound 0.0002 µM", "value": 1.02}, {"measurement": "relative viability", "setting": "LK-2; first compound 0.000632 µM", "value": 0.948}, {"measurement": "relative viability", "setting": "LK-2; first compound 0.002 µM", "value": 0.348}, {"measurement": "relative viability", "setting": "LK-2; first compound 0.006325 µM", "value": 0.188}, {"measurement": "relative viability", "setting": "LK-2; first compound 0.02 µM", "value": 0.14}, {"measurement": "relative viability", "setting": "NCI-H1299; first compound 0.0002 µM", "value": 1.1}, {"measurement": "relative viability", "setting": "NCI-H1299; first compound 0.000632 µM", "value": 1.14}, {"measurement": "relative viability", "setting": "NCI-H1299; first compound 0.002 µM", "value": 1}, {"measurement": "relative viability", "setting": "NCI-H1299; first compound 0.006325 µM", "value": 0.62}, {"measurement": "relative viability", "setting": "NCI-H1299; first compound 0.02 µM", "value": 0.295}, {"measurement": "relative viability", "setting": "NCI-H1355; first compound 0.0002 µM", "value": 0.958}, {"measurement": "relative viability", "setting": "NCI-H1355; first compound 0.000632 µM", "value": 0.886}, {"measurement": "relative viability", "setting": "NCI-H1355; first compound 0.002 µM", "value": 0.625}, {"measurement": "relative viability", "setting": "NCI-H1355; first compound 0.006325 µM", "value": 0.276}, {"measurement": "relative viability", "setting": "NCI-H1355; first compound 0.02 µM", "value": 0.243}, {"measurement": "relative viability", "setting": "NCI-H1623; first compound 0.0002 µM", "value": 0.869}, {"measurement": "relative viability", "setting": "NCI-H1623; first compound 0.000632 µM", "value": 0.834}, {"measurement": "relative viability", "setting": "NCI-H1623; first compound 0.002 µM", "value": 0.584}, {"measurement": "relative viability", "setting": "NCI-H1623; first compound 0.006325 µM", "value": 0.427}, {"measurement": "relative viability", "setting": "NCI-H1623; first compound 0.02 µM", "value": 0.284}, {"measurement": "relative viability", "setting": "NCI-H1666; first compound 0.0002 µM", "value": 0.853}, {"measurement": "relative viability", "setting": "NCI-H1666; first compound 0.000632 µM", "value": 0.628}, {"measurement": "relative viability", "setting": "NCI-H1666; first compound 0.002 µM", "value": 0.633}, {"measurement": "relative viability", "setting": "NCI-H1666; first compound 0.006325 µM", "value": 0.614}, {"measurement": "relative viability", "setting": "NCI-H1666; first compound 0.02 µM", "value": 0.372}, {"measurement": "relative viability", "setting": "NCI-H1703; first compound 0.000632 µM", "value": 0.351}, {"measurement": "relative viability", "setting": "NCI-H1703; first compound 0.002 µM", "value": 0.341}, {"measurement": "relative viability", "setting": "NCI-H1703; first compound 0.006325 µM", "value": 0.179}, {"measurement": "relative viability", "setting": "NCI-H1703; first compound 0.02 µM", "value": 0.154}, {"measurement": "relative viability", "setting": "NCI-H520; first compound 0.0002 µM", "value": 0.708}, {"measurement": "relative viability", "setting": "NCI-H520; first compound 0.000632 µM", "value": 0.808}, {"measurement": "relative viability", "setting": "NCI-H520; first compound 0.002 µM", "value": 0.341}, {"measurement": "relative viability", "setting": "NCI-H520; first compound 0.006325 µM", "value": 0.218}, {"measurement": "relative viability", "setting": "NCI-H520; first compound 0.02 µM", "value": 0.173}]}
